Marks after values point to notes of the source that are not given here.
Assays:
OAT3 = target: T1, OAT3 (Homo sapiens, UniProt Q8TCC7); test: OAT3 inhibition, fluorescein uptake into HEK293 cells; type: cell-based; parameters: expressed in transfected cells; host or cells: HEK293 (recombinant baculovirus-mediated transduction); details: R = I max,u/IC50, FDA cut-off ≥ 0.1
T1 sequence (Q8TCC7 1-542): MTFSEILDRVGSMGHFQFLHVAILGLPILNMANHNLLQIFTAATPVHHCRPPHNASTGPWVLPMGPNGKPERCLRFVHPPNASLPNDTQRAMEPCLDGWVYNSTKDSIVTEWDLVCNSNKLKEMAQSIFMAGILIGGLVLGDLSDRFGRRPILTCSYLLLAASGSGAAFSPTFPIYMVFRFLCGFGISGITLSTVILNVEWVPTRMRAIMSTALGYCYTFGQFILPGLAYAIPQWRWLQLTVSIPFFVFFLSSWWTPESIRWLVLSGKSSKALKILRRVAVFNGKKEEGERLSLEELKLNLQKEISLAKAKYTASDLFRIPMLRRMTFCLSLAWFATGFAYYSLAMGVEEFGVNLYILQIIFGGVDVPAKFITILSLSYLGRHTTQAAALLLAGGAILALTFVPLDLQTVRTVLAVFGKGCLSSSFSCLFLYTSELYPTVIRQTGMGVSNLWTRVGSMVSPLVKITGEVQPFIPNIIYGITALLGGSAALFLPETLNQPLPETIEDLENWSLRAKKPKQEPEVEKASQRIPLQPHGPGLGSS
Description: The human transporters OATP1B1, OATP1B3, OATP2B1, and OAT1‐OAT4 and a negative control protein (enhanced yellow fluorescent protein, eYFP) were transiently expressed in human embryonic kidney 293 (HEK293) cells by recombinant baculovirus‐mediated transduction. Baculoviruses carrying human genes for the transporters were prepared as reported previously. HEK293 cells were cultured in DMEM containing 10% fetal bovine serum at 37°C and 5% CO2 and passaged two to three times per week. For the transport studies, 0.05 × 10^6 cells for 48‐well plates (OATPs) or 0.06 × 10^6 cells for 24‐well plates (OATs) were seeded onto cell‐culture treated well plates coated with poly‐D‐lysine. […]
In the OATP inhibition assays, inhibitors in warm TP‐buffer were directly applied to cells after media removal, followed by a 30‐min preincubation step in the presence of inhibitors. […] OAT1 and OAT3 cells were lysed with 200 μL of 1 M sodium hydroxide for 10 min, and 150 μL of these samples were transferred to a black well plate for fluorescein quantification. […]
For the inhibition data analysis, the average of measured concentrations in the control cells was subtracted from the average of measured concentrations in transporter‐expressing cells for each inhibitor concentration and then normalized to the vehicle sample that represents 100% transport activity. […]

[1] = Static model DDI risk evaluation (FDA R values), inhibitor concentrations; parameters: species or system human; details: for I in,max,u maximum unbound plasma inhibitor concentration at liver inlet: 1000 mg oral dose, Fa×Fg 1, ka 0.1/min; for Igut intestinal luminal concentration: dose/250 mL
Description: To evaluate potential clinical DDIs for transporters, the FDA R values were calculated according to the FDA In Vitro Drug Interaction Studies guidance. Equation (3) was used to estimate the maximum unbound plasma inhibitor concentration at liver inlet (I in,max) for OATPs, where f u,p is the unbound fraction in plasma, C max is the maximal total concentration in plasma, F a is the fraction absorbed after oral administration, F g is the fraction available after intestinal metabolism, k a is the first‐order absorption rate constant in vivo, dose is the oral dose, Q h is the hepatic blood flow, and R B is the blood‐to‐plasma concentration ratio. (3) Iin,max,u=fu,p×Cmax+Fa×Fg×ka×Dose/Qh×RB
Hepatic blood flow (Q h) was set to 1.620 L/min [31].

Calculated R-value OAT3 (OAT3)	I in,max,u maximum unbound plasma inhibitor concentration at liver inlet [1]	Igut intestinal luminal concentration [1]	I max,u maximal unbound plasma concentration at steady state ([1]; C max × f u)	SMILES
0.1 ^c	15.7 µM	8813 µM		Cc1onc(-c2c(F)cccc2Cl)c1C(=O)N[C@@H]1C(=O)N2[C@@H]1SC(C)(C)[C@@H]2C(=O)O [Flucloxacillin]
0.07 ^c	5.51 µM	8505 µM	1.34 µM	Cc1onc(-c2c(Cl)cccc2Cl)c1C(=O)N[C@@H]1C(=O)N2[C@@H]1SC(C)(C)[C@@H]2C(=O)O [Dicloxacillin]

Source: article PMC12865225 (Clinical and Translational Science, 2026)
